We go through 19 molecules from patent US20060063766A1, “Use of aryl- and heteroaryl-substituted tetrahydroisoquinolines to block reuptake of norepinephrine, dopamine, and serotonin” (priority 2004, published 2006).

What is called Ki is a measure of affinity in units of concentration, obtained from inhibition or displacement. A low value points to tighter binding. For orientation: melting point means the temperature, or range, at which the solid turns liquid.

SMILES strings stand for the structures. Counter-ions that a name gives are not always drawn.

The target of one data set is T1, DAT (Homo sapiens, UniProt Q01959).
T1 construct: cDNAs containing the complete coding regions of each transporter were amplified by PCR from human brain libraries; expressed in transfected cells; host or cells: HEK293E
T1 sequence (Q01959 whole entry): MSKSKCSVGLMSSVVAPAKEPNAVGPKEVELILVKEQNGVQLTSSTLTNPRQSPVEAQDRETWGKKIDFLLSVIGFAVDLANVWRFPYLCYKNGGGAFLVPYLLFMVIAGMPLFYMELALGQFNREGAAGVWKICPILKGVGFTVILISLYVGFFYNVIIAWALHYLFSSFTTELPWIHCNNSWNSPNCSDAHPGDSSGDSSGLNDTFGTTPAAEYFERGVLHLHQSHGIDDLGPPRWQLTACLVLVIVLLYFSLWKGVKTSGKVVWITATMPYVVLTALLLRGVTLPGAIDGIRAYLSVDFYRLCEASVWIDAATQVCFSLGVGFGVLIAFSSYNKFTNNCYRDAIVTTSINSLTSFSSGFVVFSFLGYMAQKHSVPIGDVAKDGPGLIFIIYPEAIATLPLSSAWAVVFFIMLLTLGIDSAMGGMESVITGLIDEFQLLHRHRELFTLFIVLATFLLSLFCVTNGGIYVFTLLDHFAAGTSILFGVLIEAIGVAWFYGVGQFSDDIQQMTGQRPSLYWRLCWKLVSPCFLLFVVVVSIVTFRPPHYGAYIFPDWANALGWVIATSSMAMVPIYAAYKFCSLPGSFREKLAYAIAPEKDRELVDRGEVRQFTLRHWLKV
Kind of data set: biochemical. In kind it is binding. The note with it: for inhibition at 0.1 µM: read-out: % inhibition at 100 nM concentration of test compound, DAT.

In a further data set the target is SERT (Homo sapiens, UniProt P31645). Kind of data set: biochemical. The note with it: for inhibition at 0.1 µM: read-out: % inhibition at 100 nM concentration of test compound, SERT.
SERT, sequence (P31645 whole entry): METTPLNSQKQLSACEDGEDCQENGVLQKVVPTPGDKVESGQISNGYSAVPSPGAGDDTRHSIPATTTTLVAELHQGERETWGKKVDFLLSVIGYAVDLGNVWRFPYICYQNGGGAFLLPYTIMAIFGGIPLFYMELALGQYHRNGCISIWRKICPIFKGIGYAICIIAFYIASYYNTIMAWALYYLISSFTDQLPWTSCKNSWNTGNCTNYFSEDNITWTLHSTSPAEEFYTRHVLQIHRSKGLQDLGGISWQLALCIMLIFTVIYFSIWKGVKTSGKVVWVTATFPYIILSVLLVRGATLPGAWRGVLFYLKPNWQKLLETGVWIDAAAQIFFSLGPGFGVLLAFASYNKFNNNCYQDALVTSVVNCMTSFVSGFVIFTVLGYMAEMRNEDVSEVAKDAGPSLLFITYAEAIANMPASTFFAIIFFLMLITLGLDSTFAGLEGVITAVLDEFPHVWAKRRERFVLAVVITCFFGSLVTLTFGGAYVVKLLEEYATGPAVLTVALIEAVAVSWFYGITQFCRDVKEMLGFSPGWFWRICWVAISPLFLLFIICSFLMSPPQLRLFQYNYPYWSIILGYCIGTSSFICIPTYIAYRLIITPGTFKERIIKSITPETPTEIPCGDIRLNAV
The subject of data set [1] is tetrabenazine-induced exploratory loss and ptosis in mice. Kind of data set: Tetrabenazine assay. The conditions noted are these: mouse; result in words.
The conditions of data set [2]: in a very small number of patients; cited from earlier work.
Another data set has as its target dopamine transporter (Homo sapiens, UniProt Q01959). The note with it: cited from earlier work.

dopamine transporter, sequence (Q01959 whole entry): as the sequence (Q01959 whole entry) above

`CN1Cc2cc(-c3cnccn3)ccc2C(c2cc3ccccc3s2)C1` (racemic) [Example 71, (±)-4-(benzo[b]thiophen-2-yl)-2-methyl-7-(pyrazin-2-yl)-1,2,3,4-tetrahydroisoquinoline]: the inhibition at 0.1 µM on DAT is 33%; on SERT it was 91%.
For `CCN1Cc2ccccc2C(c2ccc3cn[nH]c3c2)C1` (single isomer, unassigned; (+)) [Example 130, (+)-4-(1H-Indazol-6-yl)-2-ethyl-1,2,3,4-tetrahydroisoquinoline, maleate salt], the Ki on DAT turned out to be 105 nM; at SERT, 22.5 nM.
Turning to `Cc1csc(C2CN(C)Cc3ccccc32)c1` (racemic) [4-methyl-thiophen-2-yl, reference compound], the inhibition constant (Ki) on DAT worked out at 2250 nM; on SERT, 3170 nM.
Turning to `CN1Cc2ccccc2C(c2ccc3sncc3c2)C1.O=C(O)/C=C\C(=O)O` (single isomer, unassigned; (+)) [Example 135, (+)-4-benzo[d]isothiazol-5-yl-2-methyl-1,2,3,4-tetrahydroisoquinoline, maleate salt], the melting point was in the range of 145 to 147 °C. In addition, the Ki on DAT came out at 79.4 nM. Moreover, on SERT, the Ki came to 10.4 nM.
Turning to `CN1Cc2cc(-c3cncnc3)ccc2C(c2cc3ccccc3s2)C1` (racemic) [Example 73, (±)-4-(benzo[b]thiophen-2-yl)-2-methyl-7-(pyrimidin-5-yl)-1,2,3,4-tetrahydroisoquinoline], the values for the inhibition at 0.1 µM at DAT and on SERT were 39% and 93%, respectively.
`COC(=O)C(c1ccccc1)C1CCCCN1` (stereo not shown) [Ritalin]: the “biological activity in the tetrabenazine in vivo assay” value in data set [1] is “potent activity”.
As to `Cc1noc(C)c1C1CN(C)Cc2ccccc21` (racemic) [4-(3,5-dimethyl-isoxazol-4-yl, reference compound], the Ki on DAT is 128000 nM; at SERT, 1400 nM.
In the case of `COc1cccc2cc(C3CN(C)Cc4ccccc43)oc12` (single isomer, unassigned) [Example 11], the values for the Ki on DAT and on SERT were over 300 nM and 26.8 nM, respectively.
For the molecule `CN1Cc2c(N)cccc2C(c2ccccc2)C1` (stereo not shown) [Nomifensine], the “biological activity in the tetrabenazine in vivo assay” value in data set [1] was “potent biological activity”.
As for `CN1Cc2ccccc2C(c2cc(Cl)c3[nH]ncc3c2)C1` (single isomer, unassigned; (-)) [Example 125, (−)-4-(7-chloro-1H-indazol-5-yl)-2-methyl-1,2,3,4-tetrahydoisoquinoline, maleate salt], the inhibition constant Ki was determined as 11.5 nM at DAT and 21.3 nM at SERT.
In the case of `CN1Cc2c(N)cccc2C(c2ccccc2)C1` (stereo not shown) [Nomifensine®], the “serious side effect of long term administration” value in data set [2] is given as “fatal immune hemolytic anemia”.
Consider `Cc1cccc2c1C(c1ccc3ccccc3c1)CN(C)C2` (stereo not shown) [Example 56, 2,5-dimethyl-4-(naphthalen-2-yl)-1,2,3,4-tetrahydroisoquinoline], for which the Ki at SERT worked out at 3.4 nM.
In the case of `CN1Cc2ccccc2C(c2cccs2)C1` (racemic) [thiophen-2-yl, reference compound], the Ki came to 5990 nM at DAT and 2450 nM on SERT.
Consider `CNCC[C@@H](Oc1ccccc1C)c1ccccc1` [atomoxetine], for which the “activity at the dopamine transporter” value on dopamine transporter is listed as “little or no activity”.
`CN1Cc2cc(-c3cncnc3)ccc2C(c2cc3ccccc3s2)C1` (racemic) (as salt: maleate) [Example 73, (±)-4-(benzo[b]thiophen-2-yl)-2-methyl-7-(pyrimidin-5-yl)-1,2,3,4-tetrahydroisoquinoline] came in with a melting point of 103 to 107 °C.
As to `Cc1noc(C)c1-c1ccc2c(c1)CN(C)CC2c1ccc2ccccc2c1` (racemic) [Example 142, (±)-7-(3,5-dimethyl-isoxazol-4-yl)-2-methyl-4-napthalen-2-yl-1,2,3,4-tetrahydroisoquinoline, maleate salt], the inhibition constant Ki at DAT stood at 104 nM; on SERT, 5.2 nM.
As to `CN1Cc2ccccc2C(c2ccc3sncc3c2)C1.O=C(O)/C=C\C(=O)O` (stereo not drawn) [Example 135 (−)-enantiomer], the melting point was 127 to 129 °C.
For the molecule `COc1c(C2CN(C)Cc3ccccc32)ccc2sccc12` (single isomer, unassigned) [Example 82], the Ki at DAT was over 1000 nM; on SERT it was 4.3 nM.
`COc1cccc2c1CN(C)CC2c1ccc2sccc2c1` (racemic) (as salt: fumarate) gave a melting point of 197 to 199 °C.
